Entries after “also recorded” stand apart in the source; their conditions may differ.
Experiment: Dynamic Vapor Sorption (DVS), hygroscopicity
Format: physicochemical
Conditions: for hygroscopicity (in words): from DVS weight increase at 80% RH; for weight increase (DVS): at 80% RH, 25±1° C.
Description: Dynamic Vapor Sorption (DVS) was performed by using Intrinsic DVS (Surface Measurement Systems, UK). A sample was weighed in an amount of 20-30 mg and was placed in a sample chamber. The measurement was performed at DMDT mode when the temperature of the sample chamber was maintained at 25±1° C.

Row | Structure (SMILES) | crystalline form (XRPD) of the sample before and after the DVS test | hygroscopicity (in words) | weight increase (DVS)
1 | C[C@@H](N)COc1ccc(-c2cnc3ccc(N[C@H](C)c4cccc(F)c4)nn23)cc1 [crystalline form C of Compound 1 free base] [3-{4-[(2R)-2-aminopropoxy]phenyl}-N-[(1R)-1-(3-fluorophenyl)ethyl]imidazo[1,2-b]pyridazin-6-amine] | no crystalline form change | has hygroscopicity | 
2 | C[C@@H](N)COc1ccc(-c2cnc3ccc(N[C@H](C)c4cccc(F)c4)nn23)cc1 [crystalline form C of Compound 1 adipate, 3-{4-[(2R)-2-aminopropoxy]phenyl}-N-[(1R)-1-(3-fluorophenyl)ethyl]imidazo[1,2-b]pyridazin-6-amine] |  | low hygroscopicity | about 1%
3 | C[C@@H](N)COc1ccc(-c2cnc3ccc(N[C@H](C)c4cccc(F)c4)nn23)cc1 [crystalline form D of Compound 1 free base] [3-{4-[(2R)-2-aminopropoxy]phenyl}-N-[(1R)-1-(3-fluorophenyl)ethyl]imidazo[1,2-b]pyridazin-6-amine] | did not change | some hygroscopicity | 2.896%
4 | C[C@@H](N)COc1ccc(-c2cnc3ccc(N[C@H](C)c4cccc(F)c4)nn23)cc1 [crystalline form B of Compound 1 free base] [3-{4-[(2R)-2-aminopropoxy]phenyl}-N-[(1R)-1-(3-fluorophenyl)ethyl]imidazo[1,2-b]pyridazin-6-amine] | changed | has hygroscopicity | 
5 | C[C@@H](N)COc1ccc(-c2cnc3ccc(N[C@H](C)c4cccc(F)c4)nn23)cc1 [crystalline form A of Compound 1 free base] [3-{4-[(2R)-2-aminopropoxy]phenyl}-N-[(1R)-1-(3-fluorophenyl)ethyl]imidazo[1,2-b]pyridazin-6-amine] | did not change | almost no hygroscopicity; also recorded: very low or nearly no hygroscopicity | 
6 | C[C@@H](N)COc1ccc(-c2cnc3ccc(N[C@H](C)c4cccc(F)c4)nn23)cc1 [crystalline form D of Compound 1 adipate, 3-{4-[(2R)-2-aminopropoxy]phenyl}-N-[(1R)-1-(3-fluorophenyl)ethyl]imidazo[1,2-b]pyridazin-6-amine] |  | low hygroscopicity | 
7 | C[C@@H](N)COc1ccc(-c2cnc3ccc(N[C@H](C)c4cccc(F)c4)nn23)cc1 [crystalline form B of Compound 1 adipate, 3-{4-[(2R)-2-aminopropoxy]phenyl}-N-[(1R)-1-(3-fluorophenyl)ethyl]imidazo[1,2-b]pyridazin-6-amine] |  | has hygroscopicity | about 8.2%

Source: patent US20240309007A1, “CRYSTALLINE FORMS OF 3-{4-[(2R)-2-AMINOPROPOXY]PHENYL}-N-[(1R)- 1-(3-FLUOROPHENYL) ETHYL]IMIDAZO[1,2-B]PYRIDAZIN-6-AMINE AND SALTS THEREOF” (ANHEART THERAPEUTICS (HANGZHOU) CO., LTD., priority 2021, published 2024)
